In paper PMC9597602, “Metal Complexes as Antifungals? From a Crowd-Sourced Compound Library to the First In Vivo Experiments” (JACS Au, 2022):
“Also recorded” adds a separate entry of the source. Read-outs that look alike come from different tables or passages of the source.

Columns and labels:
[1] = test system: Acinetobacter baumannii ATCC 19606 type strain; assay: CO-ADD antibacterial MIC assay; format: cell-based; settings: initial CO-ADD dose-response screening; ≥80% growth inhibition
Outline: (§1)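 Broth microdilution: compounds exposed for 18 h at 37 °C, static, to 5 × 10^5 CFU/mL of mid-log bacteria in cation-adjusted MH broth. OD600 defines MIC as lowest concentration with ≥80% inhibition; n = 4 (2 technical × 2 biological).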

[2] = test system: Escherichia coli ATCC 25922 FDA control strain; assay: CO-ADD antibacterial MIC assay; format: cell-based; settings: initial CO-ADD dose-response screening; ≥80% growth inhibition
Outline: as §1

[3] = test system: Pseudomonas aeruginosa ATCC 27853 QC control strain; assay: CO-ADD antibacterial MIC assay; format: cell-based; settings: initial CO-ADD dose-response screening; ≥80% growth inhibition
Outline: as §1

[4] = test system: Cryptococcus neoformans H99 ATCC 208821 type strain; assay: Antifungal MIC assay; format: cell-based; settings: for MIC Cryptococcus neoformans ATCC 208821 / MIC50 Cryptococcus neoformans ATCC 208821: extended panel; for MIC Cryptococcus neoformans ATCC 208821: second batch, ≥80 or ≥50% inhibition; for MIC50 Cryptococcus neoformans ATCC 208821: 50% inhibition, MIC score 2; for MIC: Cryptococcus neoformans, ATCC208821, comparator antifungals, read-out: MIC* Cryptococcus neoformans ATCC 208821
Outline: (§2)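 Broth microdilution in YNB medium at a final density of 2.5 × 10^3 CFU/mL, from yeast grown 3 days on YPD agar at 30 °C; incubated 35 °C for 36 h without shaking. MIC is the lowest concentration giving ≥80% growth inhibition (CLSI M27 score 0–1); n = 4–8 from replicate independent runs.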

[5] = test system: HEK-293 human embryonic kidney cells ATCC CRL-1573; settings: for HEK CC50: initial CO-ADD screening, 20 h; for CC50: read-out: HEK293 CC50, ranges obtained upon retesting, new batch
Protocol: The cells were incubated together with the compounds for 20 h at 37 °C in 5% CO2. […] Tamoxifen (Sigma T5648) was used as internal control on each plate.

human red blood cells = format: cell-based
Outline: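 Washed human erythrocytes at 0.5 × 10^8 cells/mL incubated with compound, then centrifuged. Haemolysis read as supernatant OD405, normalised to untreated cells (0%) and 1% Triton X-100 (100%), with melittin as internal plate control.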

[6] = test system: Candida auris CBS10913 JCM 15448; assay: Antifungal MIC assay, extended panel; format: cell-based; settings: for MIC: read-out: MIC* Candida auris CBS10913; for MIC50 Candida auris CBS10913: 50% inhibition, MIC score 2
Outline: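 This broth dilution MIC test for yeast used colonies cultured 3 days at 30 °C on YPD agar, suspended to 1 × 10^6 to 5 × 10^6 CFU/mL by OD530 and diluted with YNB. Cells were added at a final 2.5 × 10^3 CFU/mL (50 μL total) to 384-well plates with compound, incubated unshaken at 35 °C for 36 h, with fluconazole as an internal control on every plate.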

[7] = test system: Candida auris CBS12373 KCTC 17810; assay: Antifungal MIC assay, extended panel; format: cell-based; settings: for MIC: read-out: MIC* Candida auris CBS12373; for MIC50 Candida auris CBS12373: 50% inhibition, MIC score 2
Outline: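 This broth microdilution MIC test followed the reference method for antifungal susceptibility testing of yeasts. Fluconazole served as the internal control on every plate. Inoculum came from 3-day YPD agar cultures, was diluted in YNB to 2.5 × 10^3 CFU/mL in 50 μL per well of 384-well plates, and was incubated 36 h at 35 °C. Compounds ran as two technical replicates across two to four independent assays.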

[8] = test system: Candida glabrata ATCC 90030 NCCLS 84; assay: Antifungal MIC assay, extended panel; format: cell-based; settings: extended panel, second batch; ≥80 or ≥50% inhibition
Outline: as §2

[9] = test system: Candida tropicalis ATCC 750; assay: Antifungal MIC assay, extended panel; format: cell-based; settings: extended panel, second batch; ≥80 or ≥50% inhibition
Outline: as §2

[10] = test system: Cryptococcus deuterogattii ATCC 32609 VGII; assay: Antifungal MIC assay, extended panel; format: cell-based; settings: extended panel, second batch; ≥80 or ≥50% inhibition
[11] = test system: Cryptococcus deuterogattii CBS7750 VGII; Serotype B; assay: Antifungal MIC assay, extended panel; format: cell-based; settings: extended panel, second batch; ≥80 or ≥50% inhibition
Outline: as §2

G. mellonella larvae = assay: Galleria mellonella in vivo toxicity assay; settings: 10 μL of the highest concentration injected, monitored 6 days
Protocol: Based on criteria of overall antifungal activity, cytotoxicity, and hemolysis as well as compound availability, we selected compounds Co1, Ag2, Eu1, Ir1, Pt1, Pt2, Pt4, Pt5, Au1, Au2, and Au4 to conduct a preliminary in vivo toxicity assay. […] The compounds were dissolved in DMSO and diluted to the highest possible final concentration (Table 3). The larvae were then monitored for 6 days for survival and health using the G. mellonella Health Index Scoring System.[111] […] For the other compounds, no detrimental effects could be observed in the larvae over the monitoring period. […] Nevertheless, factors such as the metabolism, excretion, and/or accumulation of the various metal complexes and their metabolites will still need to be studied more rigorously in rodent models if they are to be advanced into the preclinical pipeline.
The toxicity of compounds was tested in vivo using the G. mellonella model using our previously described methods,[61] Briefly, G. mellonella larvae were reared in a controlled environmental room at Macquarie University, Sydney, Australia, at 30 °C and 65% humidity with a 12-h light/dark cycle. Larvae (200–250 mg) were individually injected with 10 μL of chemical into the last right pro-leg using a 100 μL syringe (Hamilton Ltd.). Each compound was dissolved in DMSO at the maximum concentration given in Table 3 and also diluted in water to final concentrations of 100, 10, and 1 μM. We injected five larvae in triplicate for each of the four dilutions for each compound. Larvae injected with different dilutions of DMSO (10^–1, 10^–2, and 10^–3) were included as negative controls. Following injection, the larvae were incubated at 30 °C and monitored every 24 h for 6 days. Larval performance was assessed according to the G. mellonella Health Index Scoring System.[111] The experiments were repeated over three separate days for biological triplicates.

[12] = test system: Candida glabrata ATCC 90030 NCCLS 84; assay: Antifungal MIC assay, extended panel; format: cell-based; settings: extended panel; 50% inhibition, MIC score 2
[13] = test system: Candida tropicalis ATCC 750; assay: Antifungal MIC assay, extended panel; format: cell-based; settings: extended panel; 50% inhibition, MIC score 2
[14] = test system: Cryptococcus deuterogattii CBS7750 VGII; Serotype B; assay: Antifungal MIC assay, extended panel; format: cell-based; settings: extended panel; 50% inhibition, MIC score 2
[15] = test system: Cryptococcus deuterogattii ATCC 32609 VGII; assay: Antifungal MIC assay, extended panel; format: cell-based; settings: extended panel; 50% inhibition, MIC score 2
[16] = test system: Candida albicans ATCC 90028 NCCLS11; assay: Antifungal MIC assay; format: cell-based; settings: for MIC: Candida albicans, ATCC90028, comparator antifungals, read-out: MIC* Candida albicans ATCC 90028
Outline: as §2

C. albicans (ATCC 90028) [17] = assay: Galleria mellonella infection (survival) assay; format: in vivo, Candida albicans in Galleria mellonella larvae; settings: G. mellonella inoculated with C. albicans, 10 μL compound solution, 5 days, vs untreated control
Protocol: In an initial survival assay, G. mellonella larvae were inoculated with C. albicans (ATCC 90028). The larvae were then injected with 10 μL of the compound solution, and their survival was monitored for the next 5 days. Fluconazole and 10% DMSO injections were used as controls.
The globally available strains for C. albicans and C. neoformans, namely, ATCC 90028 and H99, respectively, were used to assess the antifungal potential of the panel of cobalt complex compounds in the G. mellonella insect model. Each strain was cultured on Sabouraud dextrose agar (SDA) for 24–48 h at 27 °C prior to inoculation. Yeast colonies were then suspended in a phosphate-buffered saline solution (PBS), and cells’ concentrations were adjusted using a Neubauer counting chamber to 5 × 10^7 cells for ATCC 90028 and 1 × 10^8 cells for H99. Compounds were prepared by dissolving in 100% dimethylsulfoxide (DMSO) to 4 or 10 mM depending on compound solubility before being further diluted with water to 0.4 or 1 mM for injection into larvae.
Each group of larvae was subsequently incubated at 37 °C for 2 h in 90 mm Petri dishes. After incubation, larvae were injected with 10 μL of the compound into the last right pro-leg and returned to Petri dishes to incubate at 37 °C for 5 days. In addition to the panel of metal compounds, fluconazole (FLC) was included as a positive control (1 and 0.4 mM) and reference antifungal. Larvae inoculated with just the fungal strains and the fungal strains with 10% DMSO were also included as comparison groups. Larvae injected concurrently with PBS instead of fungal inoculum and compounds were used as negative controls. All larvae were checked daily for survival.

C. albicans (ATCC 90028) [18] = assay: Galleria mellonella infection (log CFU reduction) assay; format: in vivo, Candida albicans in Galleria mellonella larvae; settings: 1 mM, 10 μL; Pt1 19 mg/kg, Pt2 28 mg/kg, fluconazole 12 mg/kg; 24 h at 37 °C; vs 10% DMSO control
Protocol: To quantify the possible protective effect of Pt1 and Pt2 in G. mellonella challenged with C. albicans, we conducted a CFU reduction assay with these compounds. Briefly, G. mellonella larvae were inoculated with C. albicans (ATCC 90028) and incubated for 2 h at 37 °C. The larvae were then injected with 10 μL of the corresponding compound solution (1 mM) or control (same concentration and injection volume) and incubated for 24 h at 37 °C. The larvae were then anesthetized, macerated, and serially diluted onto SDA (Sabouraud dextrose agar) plates. After 48 h of incubation, the CFUs were counted.
A log CFU reduction assay was conducted for two compounds and two control groups. […] Fluconazole (1 mM) and 10% DMSO were used once again as the control groups. Fifteen G. mellonella larvae (200–250 mg) per test group were selected and inoculated with 10 μL of C. albicans at a concentration of 5 × 10^7 cells/mL and incubated on 90 mm Petri dishes in groups of five larvae for 2 h at 37 °C. Larvae were then subsequently injected with 10 μL of the corresponding test compound or control and returned to Petri dishes to incubate for 24 h at 37 °C.
Larvae were then anesthetized on ice for 5 to 10 min before being placed in individual prefilled 2 mL tubes with 3.0 mm diameter zirconium beads with 1000 μL of PBS. They were then macerated briefly using the BeadBug 6 Homogenizer (Benchmark Scientific, USA) in two 45 s intervals at 4350 rpm. After homogenization, serial dilutions of 1:100, 1:1000, and 1:10,000 were then made for each larva/tube, and 100 μL of the dilution was spread plated onto SDA plates with 50 μg/mL chloramphenicol. Plates were then incubated at 27 °C for 48 h before CFUs were counted.
A one-way ANOVA was conducted to compare the CFU counts for Pt1, Pt2, and both controls. After a significant difference was observed between the groups, a subsequent Tukey’s pairwise test was used to compare the individual test groups with each other.

[19] = test system: methicillin-resistant Staphylococcus aureus ATCC 43300; assay: CO-ADD antibacterial MIC assay; format: cell-based; settings: initial CO-ADD dose-response screening; ≥80% growth inhibition
Outline: as §1

[20] = test system: human ovarian carcinoma cell line A2780; settings: cited from earlier work
[21] = initial CO-ADD screening, 1 h, 10% hemolysis
[22] = ranges obtained upon retesting, new batch
[23] = extended panel, second batch, ≥80 or ≥50% inhibition
[24] = ≥80% inhibition, converted with MW of Table S12
[25] = Candidozyma auris, comparator antifungals, MIC = ≥80% inhibition
[26] = Candidozyma auris, comparator antifungals, ≥80% inhibition, converted with MW of Table S12
[27] = initial CO-ADD dose-response screening, ≥80% growth inhibition

Compound	MIC Ab [1] [µg/mL]	MIC Ec [2] [µg/mL]	MIC Pa [3] [µg/mL]	MIC Cryptococcus neoformans ATCC 208821 [4] [µM]	MIC50 Cryptococcus neoformans ATCC 208821 [4] [µM]	HEK CC50 [5] [µg/mL]	CC50 [5] [µM]	RBC HC10 (human red blood cells; [21]) [µg/mL]	RBC HC10 (human red blood cells; [22]) [µM]	MIC50 Candida auris CBS10913 ([6]; extended panel) [µM]	MIC [7, 23] [µM]	MIC50 Candida auris CBS12373 ([7]; extended panel) [µM]	MIC [8] [µM]	MIC Cryptococcus deuterogattii ATCC 32609 [10] [µM]	MIC [11] [µM]	MIC50 Candida glabrata ATCC 90030 [12] [µM]	MIC50 Candida tropicalis ATCC 750 [13] [µM]	MIC50 Cryptococcus deuterogattii CBS7750 [14] [µM]	MIC50 Cryptococcus deuterogattii ATCC 32609 [15] [µM]	other results
c1ccc([PH]([Au][S]c2ccccn2)(c2ccccc2)c2ccccc2)cc1 [Au2]	>32	>32	>32	0.024 to 0.195	0.024 to 0.195	>32	0.8 to 200	>32	> 200	0.098 to 1.56	0.195	0.098 to 0.195	>200	0.049 to 0.391	0.098	> 200	≥ 200	0.049 to 1.56	0.049 to 0.195	MIC [6, 23]: 0.195 µM; MIC [9]: >200 µM; toxicity (G. mellonella larvae): showed signs of toxicity; also recorded: toxic at 1 mM
OC(Cn1cncn1)(Cn1cncn1)c1ccc(F)cc1F [Fluconazole, reference compound]																				MIC ([16]; MIC = ≥80% inhibition): 4 ng/mL; MIC [16, 24]: 0.018 µM; MIC ([4]; MIC = ≥80% inhibition): 2 to 4 µg/mL; MIC [4, 24]: 9.25 to 18.5 µM; MIC [6, 25]: ≤ 4 ng/mL; MIC [6, 26]: ≤ 0.018 µM; MIC [7, 25]: ≤ 4 ng/mL; MIC [7, 26]: ≤ 0.018 µM; larva survival (C. albicans (ATCC 90028) [17]): significant larva survival; reduction in CFUs (C. albicans (ATCC 90028) [18]): 1.1 log10
Cc1c(C)c(C)[c-](C)c1C.Cc1c(C)c(C)[c-](C)c1C.[Cl-].[Cl-].[Cl-].[Cl-].[Rh+3].[Rh+3] [Rh1]	>32	>32	>32	0.195 to 0.391	0.195 to 0.391	>32	> 200	>32	0.4 to 3	0.781 to 1.56	0.78	0.391 to 0.781	6.25	0.781 to 1.56	0.391	0.391 to 6.25	0.391 to 0.781	0.391	0.78 to 1.56	MIC MRSA (Sa) [19]: >32 µg/mL; MIC Candida albicans ATCC 90028 [16, 23]: 0.39 to 1.56 µM; MIC50 Candida albicans ATCC 90028 ([16]; extended panel, 50% inhibition, MIC score 2): 0.391 to 1.56 µM; MIC Ca [16, 27]: 4 µg/mL; MIC Cn [4, 27]: 2 µg/mL; cytotoxicity: none up to stated concentration ([5]; retest): > 200 µM; MIC Candida auris CBS10913 [6, 23]: 0.781 to 1.56 µM; MIC Candida tropicalis ATCC 750 [9]: 0.391 to 0.781 µM; IC50 [20]: 7.3 ± 1.5 µM
